Laboratory results: PMC8617258, “Plant LHC-like proteins show robust folding and static non-photochemical quenching” (Nature Communications, 2021)
Residue numbers refer to the chain shown, from its start.

B1: LIGHT-HARVESTING-LIKE 3 protein LIL3.1 from Arabidopsis, 8xHis-tagged, without the predicted signal sequence (natural protein, UniProt Q9SYX1 40-262, looked up)
chain: ASSDSGSTSPTAAVSVEAPEPVEVIVKEPPQSTPAVKKEETATAKNVAVEGEEMKTTESVVKFQDARWINGTWDLKQFEKDGKTDWDSVIVAEAKRRKWLEENPETTSNDEPVLFDTSIIPWWAWIKRYHLPEAELLNGRAAMIGFFMAYFVDSLTGVGLVDQMGNFFCKTLLFVAVAGVLFIRKNEDVDKLKNLFDETTLYDKQWQAAWKNDDDESLGSKKK
notes: printed mass 25.1 KDa; Cloned into the pPD-NFLAG plasmid by NdeI and BglII with 8xHis added by the forward primer; From the wild type background it carries Chl and zeaxanthin; from ZEP^+ and xant^- it is (almost) colourless; also called LIL3[2]; LIL3 (ZEP^+); source: Synechocystis sp; PCC 6803 (psbAII promoter; wild type, ZEP^+ or xant^- background), purified from DDM-solubilized membranes …

Columns and labels:
[1] = molecular target: T1, LIL3 (LIL3.1) (Arabidopsis thaliana, UniProt Q9SYX1); assay: co-purification (Ni-NTA, sucrose gradient), CN-PAGE, SEC, HPLC pigment analysis; assay type: binding; conditions: dimer; pH 6.5, 0.03% DDM, 15 °C
T1 construct: PCC 6803 GT-P, DDM-solubilized, dimer
T1 sequence (Q9SYX1 40-262): B1 chain

[2] = molecular target: T2, ELIP2 (Arabidopsis thaliana, UniProt Q94K66); assay: co-purification (Ni-NTA, sucrose gradient), SEC, HPLC pigment analysis; assay type: binding; conditions: pH 6.5, 0.03% DDM, 15 °C
T2 construct: PCC 6803 GT-P, DDM-solubilized, monomeric
T2 sequence (Q94K66 44-193): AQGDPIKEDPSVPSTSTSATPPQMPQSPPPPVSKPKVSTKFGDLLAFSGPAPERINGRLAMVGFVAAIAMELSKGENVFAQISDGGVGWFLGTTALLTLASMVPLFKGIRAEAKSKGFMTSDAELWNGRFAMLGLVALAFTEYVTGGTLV

[3] = molecular target: T3, LIL3 (LIL3.1) (Arabidopsis thaliana, UniProt Q9SYX1, N177D); assay: co-purification, 2D CN/SDS-PAGE; assay type: binding; conditions: DDM-solubilized
T3 construct: PCC 6803 GT-P, DDM-solubilized, dimer
T3 sequence (Q9SYX1 40-262 N177D): B1 chain with N138D

[4] = molecular target: T4, LIL3 (LIL3.1) (Arabidopsis thaliana, UniProt Q9SYX1, N177A); assay: co-purification; pigment colour of the purified protein; assay type: binding; conditions: DDM-solubilized
T4 construct: PCC 6803 GT-P, DDM-solubilized, dimer
T4 sequence (Q9SYX1 40-262 N177A): B1 chain with N138A

[5] = molecular target: the molecule itself; assay: native gel or EMSA; 2D clear native/SDS-PAGE (4-14% CN gel, DDM) of LIL3 purified from the wild type background, pigmented; Coomassie stain; mass judged against Synechocystis membrane complexes with a detergent belt assumed

Row | Molecule | co-purification (Ni-NTA, sucrose gradient), CN-PAGE, SEC, HPLC pigment analysis [1] | co-purification (Ni-NTA, sucrose gradient), SEC, HPLC pigment analysis [2] | no binding [3] | no binding [4] | stoichiometry N [5]
1 | CC1=C(/C=C/C(C)=C/C=C/C(C)=C/C=C/C=C(C)/C=C/C=C(C)/C=C/C2=C(C)C[C@@H](O)CC2(C)C)C(C)(C)C[C@H](O)C1 [Zea, zeaxanthin] | Pigments extracted from the LIL3 SEC fraction contained Zea and Chl | Pigments co-isolated with ELIP2 consisted of Zea, Chl, and β-Car | showing that the N177D mutation abolishes pigment binding | (LIL3-N177A and LIL3-N177D) were purified from Synechocystis as completely colourless proteins | –
2 | CC1=C(/C=C/C(C)=C/C=C/C(C)=C/C=C/C=C(C)/C=C/C=C(C)/C=C/C2=C(C)CCCC2(C)C)C(C)(C)CCC1 [β-Car] | – | Pigments co-isolated with ELIP2 consisted of Zea, Chl, and β-Car | – | – | –
3 | B1 | – | – | – | – | 2
